Measured values as given in patent US20230416262A1, “TRPML MODULATORS” (Casma Therapeutics, Inc., priority 2020, published 2023).

Tested on: THP-1 cells
Assay: Lamp1 lysosomal exocytosis assay
Assay type: cell-based
Settings: Homo sapiens, 55 min, 55 min incubation, top dose 20 μM
Procedure: For the Lamp1 lysosomal exocytosis assay, a human monocytic suspension cell line (THP-1) was used. Cells in culture should be used between a density of […] and 1.2e6/mL on the day of the assay. For each 96-well assay plate to be used, pellet 11e6 THP-1 cells at 330×g for 5 min in a 50 mL conical tube, aspirate media and resuspend in 22 mLs of RPMI 1640/10% FBS media for a final cell concentration of 5e5/mL. Prior to addition of cells to the assay plate, perform a 7 pt dilution curve using a top dose of compound at 2 mM and use a 3-fold serial dilution, the 8th point is DMSO only. Final top dose of compound in the assay was 20 μM. 2 μL of each serial dilution was transferred to a new 96-well v-bottom assay plate. 198 μL of cells (1e5 total cells/well) was prepared as above in each well of the assay plate and incubated at 37° C./5% CO2/95% RH for 55 min. After the 55 min incubation, cells were pelleted for 5 min at 4 C at 400×g in a tabletop centrifuge. The media was separated from the cell pellets in the plate. The pellets were washed using 200 μL ice cold buffer (PBS Ca^++/Mg^++ containing 2% final BSA and 80 μM final Dynasore). Cells were pelleted again at 400×g-5 min in a 4° C. tabletop centrifuge. Buffer was separated from cells. Each well was suspended in 75 uL Lamp1-PE antibody buffer (PBS Ca^++/Mg^++ containing 2% final BSA with 80 uM final Dynasore and 1:800 final dilution of Lamp 1-PE labeled antibody). After a 45 min antibody incubation on ice, 25 μL of sytox green was added (I drop/mL buffer), and each well was mixed and incubated for an additional 15 min on ice. After the 15 min sytox green incubation, 100 μL of ice-cold buffer (PBS Ca^++/Mg^++ containing 2% final BSA and 80 uM final Dynasore) was added and cells were pelleted for 5 min at 400×g. The buffer was removed and each sample was resuspended in 100 uL of ice-cold buffer (PBS Ca^++/Mg^++ containing 2% final BSA and 80 μM final Dynasore). FACs gating strategy: FACS analyze for sytox green (A488) and Lamp1-PE (DsRed). First gate against FSC-A/SSC-A to find non-fragmented or ‘live’ THP-1 cells. Next gate against FITC-A/FSC-A to omit sytox green positive cells. Then gate for FSC-A/FSC-H to remove any doublet cells. The last gate was a histogram for PE. The statistics for ‘count’ and ‘geometric mean fluorescence intensity’ (gWFI) for PE were repoted on the last gate.
Compounds having an activity designated as “++++” provided an exocytosis readout of ≤0.50 μM; compounds having an activity designated as “+++” provided an exocytosis readout of 0.51-1.00 μM; compounds having an activity designated as “++” provided an exocytosis readout of 1.01-5.00 μM; and compounds having an activity designated as “+” provided an exocytosis readout of ≥5.01 μM

| Structure (SMILES) | EC50 [µM] |
| --- | --- |
| O=C(CC1CCOC1)N1CCC2(CC1)CN(S(=O)(=O)c1ccc(C(F)F)cc1)c1ccccc12 (stereo not drawn) [Compound I-255, 1-(1-((4-(difluoromethyl)phenyl)sulfonyl)spiro[indoline-3,4′-piperidin]-1′-yl)-2-(tetrahydrofuran-3-yl)ethan-1-one] | ≥ 5.01 |
| Cc1nn(C)c(C)c1NC(=O)N1CCC2(CC1)CN(S(=O)(=O)c1ccc(C(F)F)cc1)c1ccccc12 [Compound I-217, 1-((4-(difluoromethyl)phenyl)sulfonyl)-N-(1,3,5-trimethyl-1H-pyrazol-4-yl)spiro[indoline-3,4′-piperidine]-1′-carboxamide] | ≥ 5.01 |
| O=C(OCc1cnoc1)N1CCC2(CC1)CN(S(=O)(=O)c1ccc(C(F)F)cc1)c1ccccc12 [Compound I-173, isoxazol-4-ylmethyl 1-((4-(difluoromethyl)phenyl)sulfonyl)spiro[indoline-3,4′-piperidine]-1′-carboxylate] | 1.01 to 5 |
| CN(C)S(=O)(=O)c1ccc(S(=O)(=O)N2CC3(CCN(Cc4ccccc4)CC3)c3c(F)cccc32)cc1 [Compound I-155, 4-((1′-benzyl-4-fluorospiro[indoline-3,4′-piperidin]-1-yl)sulfonyl)-N,N-dimethylbenzenesulfonamide] | ≤ 0.5 |
| Cn1cc(NC(=O)N2CCC3(CC2)CN(S(=O)(=O)c2ccc(C(F)F)cc2)c2ccccc23)cn1 [Compound I-200, 1-((4-(difluoromethyl)phenyl)sulfonyl)-N-(1-methyl-1H-pyrazol-4-yl)spiro[indoline-3,4′-piperidine]-1′-carboxamide] | ≥ 5.01 |
| O=C(NC1CCC(F)(F)CC1)N1CCC2(CC1)CN(S(=O)(=O)c1ccc(C(F)F)cc1)c1ccccc12 [Compound I-218, N-(4,4-difluorocyclohexyl)-1-((4-(difluoromethyl)phenyl)sulfonyl)spiro[indoline-3,4′-piperidine]-1′-carboxamide] | ≥ 5.01 |
| Cn1cc(COC(=O)N2CCC3(CC2)CN(S(=O)(=O)c2ccc(C(F)F)cc2)c2ccccc23)cn1 [Compound I-176] | 1.01 to 5 |
| O=C(CCC1CCCO1)N1CCC2(CC1)CN(S(=O)(=O)c1ccc(C(F)F)cc1)c1ccccc12 (stereo not drawn) [Compound I-252, 1-(1-((4-(difluoromethyl)phenyl)sulfonyl)spiro[indoline-3,4′-piperidin]-1′-yl)-3-(tetrahydrofuran-2-yl)propan-1-one] | ≥ 5.01 |
| O=S(=O)(c1ccc(C(F)F)cc1)N1CC2(CCC(F)(F)CC2)c2ccccc21 [Compound I-138, 1′-[4-(difluoromethyl)benzenesulfonyl]-4,4-difluoro-1′,2′-dihydrospiro[cyclohexane-1,3′-indole]] | ≥ 5.01 |
| O=C(NCC1CCCO1)N1CCC2(CC1)CN(S(=O)(=O)c1ccc(C(F)F)cc1)c1ccccc12 (stereo not drawn) [Compound I-203, 1-((4-(difluoromethyl)phenyl)sulfonyl)-N-((tetrahydrofuran-2-yl)methyl)spiro[indoline-3,4′-piperidine]-1′-carboxamide] | ≥ 5.01 |
| COc1ccc(NC(=O)N2CCC3(CC2)CN(S(=O)(=O)c2ccc(C(F)F)cc2)c2ccccc23)cn1 [Compound I-216, 1-((4-(difluoromethyl)phenyl)sulfonyl)-N-(6-methoxypyridin-3-yl)spiro[indoline-3,4′-piperidine]-1′-carboxamide] | ≥ 5.01 |
| O=C(NCc1ccncc1)C1CCC2(CC1)CN(S(=O)(=O)c1ccc(C(F)F)cc1)c1ccccc12 (stereo not drawn) [Compound I-233, 1′-((4-(difluoromethyl)phenyl)sulfonyl)-N-(pyridin-4-ylmethyl)spiro[cyclohexane-1,3′-indoline]-4-carboxamide] | ≥ 5.01 |
| O=C(COC1CCOC1)N1CCC2(CC1)CN(S(=O)(=O)c1ccc(C(F)F)cc1)c1ccccc12 (stereo not drawn) [Compound I-254, 1-(1-((4-(difluoromethyl)phenyl)sulfonyl)spiro[indoline-3,4′-piperidin]-1′-yl)-2-((tetrahydrofuran-3-yl)oxy)ethan-1-one] | ≥ 5.01 |
| O=C(OCc1ccccn1)N1CCC2(CC1)CN(S(=O)(=O)c1ccc(C(F)F)cc1)c1ccccc12 [Compound I-141, pyridin-2-ylmethyl 1-((4-(difluoromethyl)phenyl)sulfonyl)spiro[indoline-3,4′-piperidine]-1′-carboxylate] | 1.01 to 5 |
| O=C(OCc1ccccc1)N1CCC2(CC1)CN(C(=O)c1ccc(C(F)F)cc1)c1ccccc12 [Compound I-185, benzyl 1-(4-(difluoromethyl)benzoyl)spiro[indoline-3,4′-piperidine]-1′-carboxylate] | ≥ 5.01 |
| O=C(OCc1ccccc1)N1CCC2(CC1)CN(S(=O)(=O)c1ccc(C(F)F)cc1)c1cnccc12 [Compound I-135, benzyl 1′-[4-(difluoromethyl)benzenesulfonyl]-1′,2′-dihydrospiro[piperidine-4,3′-pyrrolo[2,3-c]pyridine]-1-carboxylate] | ≤ 0.5 |
| O=C(CC1CCCO1)N1CCC2(CC1)CN(S(=O)(=O)c1ccc(C(F)F)cc1)c1ccccc12 (stereo not drawn) [Compound I-256, 1-(1-((4-(difluoromethyl)phenyl)sulfonyl)spiro[indoline-3,4′-piperidin]-1′-y1)-2-(tetrahydrofuran-2-yl)ethan-1-one] | ≥ 5.01 |

The remaining lines, values ahead:

| EC50 [µM] | Structure (SMILES) |
| --- | --- |
| ≥ 5.01 | O=C(NCC(F)F)N1CCC2(CC1)CN(S(=O)(=O)c1ccc(C(F)F)cc1)c1ccccc12 [Compound I-194, N-(2,2-difluoroethyl)-1-((4-(difluoromethyl)phenyl)sulfonyl)spiro[indoline-3,4′-piperidine]-1′-carboxamide] |
| 1.01 to 5 | O=C(CCC(F)(F)F)N1CCC2(CC1)CN(S(=O)(=O)c1ccc(C(F)F)cc1)c1ccccc12 [Compound I-251, 1-(1-((4-(difluoromethyl)phenyl)sulfonyl)spiro[indoline-3,4′-piperidin]-1′-y1)-4,4,4-trifluorobutan-1-one] |
| ≥ 5.01 | O=C(C1CCC2(CC1)CN(S(=O)(=O)c1ccc(C(F)F)cc1)c1ccccc12)N1CCC2(CCOC2)C1 (stereo not drawn) [Compound I-240, (1′-((4-(difluoromethyl)phenyl)sulfonyl)spiro[cyclohexane-1,3′-indolin]-4-y1)(2-oxa-7-azaspiro[4.4]nonan-7-yl)methanone] |
| ≥ 5.01 | CN(C(=O)C1CCC2(CC1)CN(S(=O)(=O)c1ccc(C(F)F)cc1)c1ccccc12)c1ccnn1C (stereo not drawn) [Compound I-243, 1′-((4-(difluoromethyl)phenyl)sulfonyl)-N-methyl-N-(1-methyl-1H-pyrazol-5-yl)spiro[cyclohexane-1,3′-indoline]-4-carboxamide] |
| ≥ 5.01 | O=C(CCC1CCOC1)N1CCC2(CC1)CN(S(=O)(=O)c1ccc(C(F)F)cc1)c1ccccc12 (stereo not drawn) [Compound I-253, 1-(1-((4-(difluoromethyl)phenyl)sulfonyl)spiro[indoline-3,4′-piperidin]-1′-y1)-3-(tetrahydrofuran-3-yl)propan-1-one] |
| ≥ 5.01 | O=C(Nc1ccccc1)N1CCC2(CC1)CN(S(=O)(=O)c1ccc(C(F)F)cc1)c1ccccc12 [Compound I-197, 1-((4-(difluoromethyl)phenyl)sulfonyl)-N-phenylspiro[indoline-3,4′-piperidine]-1′-carboxamide] |
| ≥ 5.01 | O=C(NC1CCOC1)N1CCC2(CC1)CN(S(=O)(=O)c1ccc(C(F)F)cc1)c1ccccc12 (stereo not drawn) [Compound I-195, 1-((4-(difluoromethyl)phenyl)sulfonyl)-N-(tetrahydrofuran-3-yl)spiro[indoline-3,4′-piperidine]-1′-carboxamide] |
| ≥ 5.01 | Cc1noc(C)c1NC(=O)N1CCC2(CC1)CN(S(=O)(=O)c1ccc(C(F)F)cc1)c1ccccc12 [Compound I-213, 1-((4-(difluoromethyl)phenyl)sulfonyl)-N-(3,5-dimethylisoxazol-4-yl)spiro[indoline-3,4′-piperidine]-1′-carboxamide] |
| ≥ 5.01 | O=C(C1CCC2(CC1)CN(S(=O)(=O)c1ccc(C(F)F)cc1)c1ccccc12)N1CCC2(COC2)C1 (stereo not drawn) [Compound I-244, (1′-((4-(difluoromethyl)phenyl)sulfonyl)spiro[cyclohexane-1,3′-indolin]-4-yl)(2-oxa-6-azaspiro[3.4]octan-6-yl)methanone] |
| ≥ 5.01 | O=C(N1CCCC1)N1CCC2(CC1)CN(S(=O)(=O)c1ccc(C(F)F)cc1)c1ccccc12 [Compound I-136, (1-((4-(difluoromethyl)phenyl)sulfonyl)spiro[indoline-3,4′-piperidin]-1′-yl)(pyrrolidin-1-yl)methanone] |
